Source: US5925529A, “Method for discovery of peptide agonists” (The Regents of the University of California, priority 1995, dated 1999)
Entries after “also recorded” stand apart in the source; their conditions may differ.

Legend:
Human fMLF receptor = target: T1, Human fMLF receptor (Homo sapiens, UniProt P21462); assay: Agonist-induced 45Ca release from Xenopus oocytes expressing the formyl peptide receptor; assay type: cell-based; settings: Xenopus oocytes injected with human fMLF receptor cRNA; compared with fMLF (FIG. 2)
T1 construct: expressed in transfected cells; host or cells: Xenopus laevis oocytes microinjected with cRNA
T1 sequence (P21462 1-350): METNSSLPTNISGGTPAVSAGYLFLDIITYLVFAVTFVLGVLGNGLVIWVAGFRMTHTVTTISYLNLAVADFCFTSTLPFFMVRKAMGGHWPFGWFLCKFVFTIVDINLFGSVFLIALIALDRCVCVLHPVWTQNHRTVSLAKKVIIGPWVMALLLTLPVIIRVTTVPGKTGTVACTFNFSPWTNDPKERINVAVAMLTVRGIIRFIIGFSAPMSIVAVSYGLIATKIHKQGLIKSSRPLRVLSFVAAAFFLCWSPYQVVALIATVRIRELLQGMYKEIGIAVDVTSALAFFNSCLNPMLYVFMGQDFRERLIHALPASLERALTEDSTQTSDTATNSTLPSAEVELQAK
Method: Xenopus oocytes were harvested from female Xenopus laevis and processed using published techniques. Coleman, A., In Transcription and Translation: A Practical Approach, Oxford: IRL Press, pp. 271-302 (1984); Williams et al., PNAS 85: 4939-4943 (1988). To remove follicular cells, oocytes were incubated for 4 hr at room temperature with 1 mg/ml Sigma type II collagenase in modified Barth's solution (MBSH) without Ca^2+, then washed and incubated overnight at 18° C. in MBSH II (MBSH containing 1 mg/ml bovine serum albumin, 1 ml/ml Ficoll, 100 U/ml penicillin, 100 μg/ml streptomycin, and 50 μg/ml gentamicin). […]
(§1) Agonist-induced increases in ^45 Ca^2+ release were assessed by published techniques. […] The harvested medium was analyzed by scintillation counting to determine ^45 Ca^2+ release by the oocytes during each 10 min incubation. […] At this point, two additional 10 min collections were obtained, then medium including agonist was added and agonist-induced ^45 Ca^2+ release determined.
Formyl peptide receptor response to its classical agonist fMLF (SEQ ID NO:12) and to the new agonist derived from tethered ligand library. […] Xenopus oocytes were microinjected with 5 ng cRNA transcribed from this construct, cultured for 24 hours, and ^45 Ca release in response to the indicated concentration of peptides was measured as described above.

[1] = target: T2, wild type human thrombin receptor (Homo sapiens, UniProt P25116); assay: Agonist-induced 45Ca release from Xenopus oocytes expressing the wild type thrombin receptor; assay type: cell-based; settings: Xenopus oocytes expressing epitope tagged wild type human thrombin receptor; compared with SFLLR peptide (FIG. 5A)
T2 construct: expressed in transfected cells; host or cells: Xenopus laevis oocytes (cRNA)
T2 sequence (P25116 22-425): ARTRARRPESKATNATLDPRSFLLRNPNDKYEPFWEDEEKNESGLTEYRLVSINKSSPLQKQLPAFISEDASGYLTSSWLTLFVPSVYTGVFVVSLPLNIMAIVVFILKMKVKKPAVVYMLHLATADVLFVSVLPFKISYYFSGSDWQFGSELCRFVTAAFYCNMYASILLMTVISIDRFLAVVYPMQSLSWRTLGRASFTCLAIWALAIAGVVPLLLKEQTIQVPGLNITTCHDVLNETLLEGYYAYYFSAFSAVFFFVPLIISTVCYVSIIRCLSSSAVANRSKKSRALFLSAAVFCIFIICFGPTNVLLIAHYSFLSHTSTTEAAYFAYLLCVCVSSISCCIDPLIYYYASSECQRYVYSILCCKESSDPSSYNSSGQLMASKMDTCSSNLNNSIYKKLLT
Method: (§2) Xenopus oocytes were harvested from female Xenopus laevis and processed using published techniques. Coleman, A., In Transcription and Translation: A Practical Approach, Oxford: IRL Press, pp. 271-302 (1984); Williams et al., PNAS 85: 4939-4943 (1988). To remove follicular cells, oocytes were incubated for 4 hr at room temperature with 1 mg/ml Sigma type II collagenase in modified Barth's solution (MBSH) without Ca^2+, then washed and incubated overnight at 18° C. in MBSH II (MBSH containing 1 mg/ml bovine serum albumin, 1 ml/ml Ficoll, 100 U/ml penicillin, 100 μg/ml streptomycin, and 50 μg/ml gentamicin). Dumont stage V oocytes were selected and microinjected with 5 to 50 nl of mRNA (1 μg/μl in 10 mM HEPES, pH 7.0). Microinjected oocytes were cultured for 24 hr at 18° C. in MBSH then selected for functional assays.
as §1, with “techniques. Williams et al., PNAS 85:4939-4943 (1988).” for “techniques.”, “determined. […]” for “determined.”

uninjected oocytes = assay: 45Ca release in uninjected Xenopus oocytes (control for receptor dependence); assay type: cell-based, Xenopus laevis
Method: as §2
as §1, with “techniques. Williams et al., PNAS 85:4939-4943 (1988).” for “techniques.”, “determined. […]” for “determined.”

formyl peptide receptor = settings: compared with f-MLF; cited from earlier work

Substance | agonist activity / signaling (45Ca release) at the formyl peptide receptor (Human fMLF receptor) | agonist activity / signaling (45Ca release) at the thrombin receptor [1] | signaling (45Ca release) in uninjected oocytes (uninjected oocytes) | activity of the unformylated peptide relative to f-MLF (fold less activity) (formyl peptide receptor)
GFIYF | did not cause signaling | nearly as effective as the SFLLR; also recorded: receptor-dependent | did not cause signaling | 
MLF |  |  |  | at least 1000 fold
